From patent US12122799B2, “Antibiotics for veterinary staphylococcal infections” (THE GEORGE WASHINGTON UNIVERSITY, A CONGRESSIONALLY …, priority 2018, dated 2024)
Read-outs that look alike come from different tables or passages of the source. Values belong to the compound of their own block, whether it stands above or below them.

Tests used:
S. chromogenes [1] = type: cell-based
S. chromogenes [2] = assay: Growth inhibition of Staphylococcus species assay; type: cell-based; details: read-out: Bacterial IC50 (Mean ± SD) S.c.
P. falciparum = details: read-out: inhibition of P. falciparum growth IC50; cited from earlier work
S. schleferi = type: cell-based, S. schleiferi
S. aureus = type: cell-based; details: read-out: Bacterial IC50 (Mean ± SD) S.a.
S. pseudintermedius [3] = type: cell-based
S. schleiferi = assay: Growth inhibition of Staphylococcus species assay; type: cell-based; details: read-out: Bacterial IC50 (Mean ± SD) S.s.
S. pseudintermedius [4] = assay: Growth inhibition of Staphylococcus species assay; type: cell-based; details: read-out: Bacterial IC50 (Mean ± SD) S.p.
recombinant DXR enzyme [5] = assay: DXR enzyme activity assay; type: biochemical; details: read-out: S. schleiferi IC50 (mean ± SD)
recombinant DXR enzyme [6] = assay: DXR enzyme activity assay; type: biochemical; details: recombinant S. chromogenes DXR, n=3; read-out: S. chromogenes IC50 (mean ± SD)
[7] = S. schleiferi growth, LB media, 20 h, OD600

- IC50 (S. schleiferi; [7]): 8700 nM
Compound: CC(C)(C)C(=O)OCOP(=O)(/C=C/CN(O)C(=O)CCCc1ccccc1)OCOC(=O)C(C)(C)C [JXW-168]

- IC50 (S. schleiferi; [7]): 210 ± 50 nM
Compound: CC(=O)N(O)C/C=C/P(=O)(OCOC(=O)c1ccccc1)OCOC(=O)c1ccccc1 [KMH-102]

- IC50 (S. schleiferi; [7]): 1300 nM
Compound: CC(C)(C)C(=O)OCOP(=O)(/C=C/CN(O)C(=O)c1ccccc1)OCOC(=O)C(C)(C)C [JXW-189]

The next lines start with the compound.

Compound: O=CN(O)CCCP(=O)(O)O [fosmidomycin]
- bacteriostatic or bactericidal in S. chromogenes (S. chromogenes [1]): bacteriostatic
- IC50 (S. chromogenes [2]): 310 ± 10 nM
- IC50 (P. falciparum): 90 to 350 nM
- bacteriostatic or bactericidal in S. schleferi (S. schleferi): bacteriostatic
- IC50 (S. aureus): > 100000 nM
- bacteriostatic or bactericidal in S. pseudintermedius (S. pseudintermedius [3]): bacteriostatic
- IC50 (S. schleiferi): 780 ± 130 nM
- IC50 (S. pseudintermedius [4]): 310 ± 40 nM
- IC50 (recombinant DXR enzyme [5]): 670 ± 60 nM

Compound: COCOCOCOP(=O)(/C=C/CN(O)C=O)OCOCOCOC [JXW-573]
- IC50 (S. chromogenes [2]; S. chromogenes growth, LB media, 20 h, OD600): 40 nM
- IC50 (recombinant DXR enzyme [6]): 15200 ± 2360 nM
- IC50 (S. schleiferi; [7]): 30 nM
- IC50 (S. pseudintermedius [4]; S. pseudintermedius growth, LB media, 20 h, OD600): 210 ± 40 nM
- IC50 (recombinant DXR enzyme [5]; recombinant S. schleiferi DXR, n=3): 12600 ± 1880 nM
